# Assay results: US20150164895A1, “DETERMINING SENSITIVITY OF CELLS TO B-RAF INHIBITOR TREATMENT BY DETECTING KRAS MUTATION AND RTK EXPRESSION LEVELS” (GENENTECH, INC., priority 2009, published 2015)
# Several values for one entry are separate records, joined by “and”; a condition that tells them apart may be missing. Equal entries are not always repeated.
# How the values were obtained:
# [1] = system: phospho-MEK in B-RAF V600E mutant cell lines; experiment: Phospho-MEK MSD assay, basal and EGF-stimulated; assay type: cell-based; details: basal and EGF-stimulated (20 ng/ml EGF); compared with PLX4720
# Method: (A) Cells were treated with […] compound in serum free media for 1 hour. For stimulation 20 ng/ml EGF was added for 5 min before cells were lysed. Lysates were transferred to an MSD plate where phospho- and total MEK levels were measured. […] Cells were dosed with indicated inhibitors, either alone or in combination in the presence of 20 ng/ml EGF in the media.
# [2] = system: patient-derived melanoma and non-small cell lung cancer tumor models; experiment: Primary human tumor xenograft models, time to tumor doubling; assay type: in vivo, mice; details: 100 mg/kg daily
# Method: FIG. 8A depicts the duration and extent of BRAF pathway inhibition determines B-Raf inhibitor, GDC-0879 efficacy in primary human tumor xenograft models. A Kaplan-Meier plot showing time to tumor doubling for patient-derived melanoma and non-small cell lung cancer tumor models treated daily with 100 mg/kg GDC-0879 or vehicle. Genotypes for BRAF, N-ras and K-ras are indicated.
# The Ras GTPase family controls numerous downstream signaling cascades in response to signals that regulate cellular processes including proliferation and survival. While Ras is one of the most prevalent targets for gain-of-function mutations in human tumors, questions remain regarding how the Ras effector pathway functions in mutant K-ras-driven tumorigenesis. Since an important function of K-ras involves B-Raf activation within the canonical MAPK signaling pathway, we initiated a study to determine B-Raf's role in the context of mutant K-ras-driven tumor promotion and maintenance. […] See, FIG. 8A, showing time to tumor doubling.
# [3] = system: pMEK levels in non-B-Raf^V600E lines; experiment: pMEK levels / Raf/MEK/ERK pathway induction by Raf inhibitors; assay type: cell-based
# B-Raf^V600E = B-Raf^V600E (Homo sapiens, UniProt P15056, V600E); details: physiological [ATP]
# lung tumor xenografts = experiment: Experiment H327: growth in lung tumor xenografts after dosing with B-RAF inhibitor; assay type: in vivo, mice; details: H327-2, LXFA 1041/9N4, 100 mg/kg/day po Days 0-20; for Absolute body weight, Median / Relative body weight, Median: group median n 10; for Absolute tumor volume: (a*b*b)/2, Median / Relative tumor volume, Median: group median n 20; for Relative tumor volume: individual tumor
# Description: FIGS. 10-18 depict growth in lung tumor xenografts after dosing with GDC-0879.
# The data are shown below, and in FIGS. 10-14 for Experiment H331 and FIGS. 15-18 for Experiment H327.
# [4] = study day 3, individual animal, listed as G-026887
# [5] = study day 7, individual animal, listed as G-026887
# [6] = study day 10, individual animal, listed as G-026887
# B-Raf^V600E, sequence (P15056 whole entry V600E): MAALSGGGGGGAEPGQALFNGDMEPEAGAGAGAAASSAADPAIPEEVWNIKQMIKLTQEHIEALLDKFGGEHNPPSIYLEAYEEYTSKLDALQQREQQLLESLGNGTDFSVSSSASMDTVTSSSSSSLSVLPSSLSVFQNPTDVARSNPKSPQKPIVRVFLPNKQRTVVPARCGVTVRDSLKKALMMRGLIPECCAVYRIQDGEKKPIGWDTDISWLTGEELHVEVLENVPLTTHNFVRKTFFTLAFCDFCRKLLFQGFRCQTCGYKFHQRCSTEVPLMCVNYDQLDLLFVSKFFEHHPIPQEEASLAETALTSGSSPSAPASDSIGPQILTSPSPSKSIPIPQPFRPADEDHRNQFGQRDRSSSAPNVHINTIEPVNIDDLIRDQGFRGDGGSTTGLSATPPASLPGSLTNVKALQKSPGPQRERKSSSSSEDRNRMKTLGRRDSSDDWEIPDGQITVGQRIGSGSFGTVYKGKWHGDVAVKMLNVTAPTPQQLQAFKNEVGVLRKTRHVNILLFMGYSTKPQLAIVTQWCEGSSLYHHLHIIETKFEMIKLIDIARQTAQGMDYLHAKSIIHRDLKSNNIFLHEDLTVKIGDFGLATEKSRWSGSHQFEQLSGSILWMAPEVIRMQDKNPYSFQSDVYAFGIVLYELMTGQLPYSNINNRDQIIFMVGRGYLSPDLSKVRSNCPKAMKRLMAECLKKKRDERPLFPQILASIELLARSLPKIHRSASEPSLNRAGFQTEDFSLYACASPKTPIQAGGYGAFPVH
compound,measurement,setting,value
"OCCn1cc(-c2ccc3c(c2)CC/C3=N\O)c(-c2ccncc2)n1 [GDC-0879, 2-{4-[(1E)-1-(hydroxyimino)-2,3-dihydro-1H-inden-5-yl]-3-(pyridine-4-yl)-1H-pyrazol-1-yl}ethan-1-ol]",knocking down phospho-MEK levels,[1],more effective in knocking down phospho-MEK levels
same,time to tumor doubling / tumor growth,[2]; K-ras-mutant non-small cell lung tumors such as LXFA 1041 and LXFA 983,significantly accelerated growth
same,time to tumor doubling / tumor progression,"[2]; MEXF 989, MEXF 276, and MEXF 355 tumors",statistically significant (P<0.05) delay in tumor progression
same,effect on pMEK levels,[3]; after serum stimulation,Inhibitory effects of GDC-0879 predominate
same,effect on pMEK levels / c-Raf,[3]; basal conditions,bell-shaped curve
same,potency in biochemical enzyme assay,B-Raf^V600E,maintains effective potency
same,Survival time,"lung tumor xenografts; individual animal, listed as G-026887",>20 days (14×) and >21 days (6×)
same,"Absolute body weight, Median",lung tumor xenografts; study day 0,25.1 g
same,"Relative body weight, Median",lung tumor xenografts; study day 0,100.0%
same,"Absolute tumor volume: (a*b*b)/2, Median",lung tumor xenografts; study day 0,88.5 mm3
same,"Relative tumor volume, Median",lung tumor xenografts; study day 0,100.0%
same,Relative body weight,"lung tumor xenografts; study day 0, individual animal",100.0%
same,Absolute body weight,"lung tumor xenografts; study day 0, individual animal, listed as G-026887",25.4 g and 28.6 g and 24.5 g (2×) and 24.0 g and 25.1 g and 29.8 g and 31.5 g and 25.0 g and 23.6 g
same,Relative tumor volume,lung tumor xenografts; study day 0,100.0%
same,"Absolute body weight, Median",lung tumor xenografts; study day 3,25.3 g
same,"Relative body weight, Median",lung tumor xenografts; study day 3,99.2%
same,"Absolute tumor volume: (a*b*b)/2, Median",lung tumor xenografts; study day 3,139.8 mm3
same,"Relative tumor volume, Median",lung tumor xenografts; study day 3,165.4%
same,Absolute body weight,lung tumor xenografts; [4],25.6 g and 29.4 g and 24.6 g and 23.8 g and 23.6 g and 25.1 g and 29.3 g and 30.4 g and 25.4 g and 22.9 g
same,Relative body weight,lung tumor xenografts; [4],100.8% and 102.8% and 100.4% and 97.1% and 98.3% (2×) and 100.0% and 96.5% and 101.6% and 97.0%
same,Relative tumor volume,"lung tumor xenografts; study day 3, listed as G-026887",193.9% and 208.9% and 154.7% and 187.7% and 202.6% and 157.6% and 110.0% and 160.2% and 138.1% and 194.2% and 138.9% and 172.0% and 178.9% and 185.0% and 157.3%
same,"Absolute body weight, Median",lung tumor xenografts; study day 7,25.7 g
same,"Relative body weight, Median",lung tumor xenografts; study day 7,101.4%
same,"Absolute tumor volume: (a*b*b)/2, Median",lung tumor xenografts; study day 7,228.0 mm3
same,"Relative tumor volume, Median",lung tumor xenografts; study day 7,258.8%
same,Absolute body weight,lung tumor xenografts; [5],25.9 g and 30.9 g and 25.2 g and 24.3 g and 24.4 g and 25.4 g and 29.8 g and 30.5 g and 26.3 g and 22.6 g
same,Relative body weight,lung tumor xenografts; [5],102.0% and 108.0% and 102.9% and 99.2% and 101.7% and 101.2% and 100.0% and 96.8% and 105.2% and 95.8%
same,Relative tumor volume,"lung tumor xenografts; study day 7, listed as G-026887",452.1% and 329.8% and 300.6% and 260.9% and 376.4% and 256.7% and 340.1% and 324.4% and 232.6% and 248.9% and 223.2% and 293.8% and 281.8% and 209.2%
same,"Absolute body weight, Median",lung tumor xenografts; study day 10,25.5 g
same,"Relative body weight, Median",lung tumor xenografts; study day 10,100.5%
same,"Absolute tumor volume: (a*b*b)/2, Median",lung tumor xenografts; study day 10,305.5 mm3
same,"Relative tumor volume, Median",lung tumor xenografts; study day 10,388.4%
same,Absolute body weight,lung tumor xenografts; [6],25.5 g (2×) and 30.4 g and 24.9 g and 24.3 g and 23.8 g and 30.0 g and 30.6 g and 26.1 g and 22.0 g
same,Relative body weight,lung tumor xenografts; [6],100.4% and 106.3% and 101.6% (2×) and 99.2% (2×) and 100.7% and 97.1% and 104.4% and 93.2%
same,Relative tumor volume,"lung tumor xenografts; study day 10, listed as G-026887",586.9% and 487.4% and 508.8% and 376.4% and 414.0% and 411.7% and 522.2% and 562.3% and 323.9% and 342.2% and 332.9% and 385.0% and 391.8% and 264.6%
same,"Absolute body weight, Median",lung tumor xenografts; study day 14,25.6 g
same,"Relative body weight, Median",lung tumor xenografts; study day 14,101.4%
same,"Absolute tumor volume: (a*b*b)/2, Median",lung tumor xenografts; study day 14,541.3 mm3
same,"Relative tumor volume, Median",lung tumor xenografts; study day 14,605.0%
